Consider three compounds from US7420068B2, “Crystalline composition containing escitalopram” (H. Lundbeck A/S, priority 2004, dated 2008).

Structures can show the parent of a compound that is named as a salt.

Holding throughout (type): physicochemical
The nature of data set [1]: Particle size distribution by laser diffraction (Sympatec Helos, 1 bar dispersive pressure). From the text:
As used herein, “particle size distribution” means the cumulative volume size distribution of equivalent spherical diameters as determined by laser diffraction at 1 bar dispersive pressure in a Sympatec Helos equipment. “Median particle size” “MPS” and X50 refer, correspondingly, each to the median or 50% quantile of said particle size distribution. “X10” and “X95” refer, correspondingly, to the 10% respectively the 95% quantile. “X10/X50” and “X50/X95” refer to the ratio between X10 and X50 respectively X50 and X95.

Data set [2] can be described thus: Particle size of prior-art crystalline products (background statement). Conditions: product of the known preparation process.
Data set [3] can be described thus: Flow properties of prior-art crystalline products (background statement). Conditions: product of the known preparation process.

With `CN(C)CCC[C@@]1(c2ccc(F)cc2)OCc2cc(C#N)ccc21` [Example 1, escitalopram oxalate], in data set [1] (S-diol batches, production scale recrystallisation from ethanol), the X50 (median particle size) was 171 µm. The X10/X50 in data set [1] (S-diol batches, ratio of 10% quantile to median) came to 0.13. The X50/X95 in data set [1] (S-diol batches, ratio of median to 95% quantile) was determined as 0.44. For the same compound, the “Particle size at quantile 10%” value in data set [1] (Sympatec Helos, quantile 10%) is 13 μm. For the same compound, the “Particle size at quantile 50%” value in data set [1] (Sympatec Helos, quantile 50%) is recorded as 163 μm. The “Particle size at quantile 90%” value in data set [1] (Sympatec Helos, quantile 90%) was determined as 455 μm.
For `CN(C)CCCC1(c2ccc(F)cc2)OCc2cc(C#N)ccc21` (stereo not shown) [citalopram hydrobromide], in data set [2], the particle size is 2-20 μm. Besides, the flow properties result in data set [3] is reported as “very poor”.
On the same counts, the results for `CN(C)CCC[C@@]1(c2ccc(F)cc2)OCc2cc(C#N)ccc21.O=C(O)C(=O)O` [escitalopram oxalate, (S)-1-[3-(dimethylamino)propyl]-1-(4-fluorophenyl)-1,3-dihydro-5-isobenzofurancarbonitrile oxalate] are 2-20 μm and “similarly poor”.
